Measured values: ChEMBL document CHEMBL5352429, “Designed symmetrical β-hairpin peptides for treating multidrug-resistant salmonella typhimurium infections” (Eur J Med Chem, 2022)
Converted amounts (≈) assume the structure as drawn. The source made the active and inactive calls. No cut-off for these calls is given here. Peptide text beside a SMILES is read from it.

Experiments:
[1] = test system: Salmonella enterica subsp. enterica serovar Paratyphi B; experiment: Antibacterial activity against Salmonella paratyphi B CICC 21495 incubated overnight by standard microtiter dilution method; assay type: functional
Salmonella typhimurium [2] = experiment: Antibacterial activity against Salmonella typhimurium DT104 assessed as increase in ZO-1 mRNA level in colon at 20 mg/kg, ip administered for 3 days and measured on day 7 by RT-PCR analysis; assay type: functional, organism-based; conditions: Salmonella enterica subsp. enterica serovar Typhimurium, time 7.0 day
RAW264.7 [3] = experiment: Inhibition of LPS-stimulated IL-1beta production in mouse RAW264.7 cells at 1 to 128 ug/ml incubated for 24 hrs by ELISA analysis; assay type: functional, cell-based; conditions: dose 1-128 µg/ml
Staphylococcus aureus [4] = experiment: Antibacterial activity against methicillin-resistant Staphylococcus aureus ATCC 43300 incubated overnight by standard microtiter dilution method; assay type: functional
Salmonella typhimurium [5] = experiment: Antibacterial activity against Salmonella typhimurium DT104 infected in ICR mouse model assessed as body weight gain at 2 mg/kg, ip administered for 3 days and measured from day 4 to day 7; assay type: functional, organism-based; conditions: Salmonella enterica subsp. enterica serovar Typhimurium, time 7.0 day
Cell membrane [6] = experiment: Induction of membrane damage in Salmonella typhimurium DT104 assessed as cytoplasmic outflow at 1 times of MIC incubated for 60 mins by transmission electron microscopic analysis; assay type: subcellular; conditions: Salmonella enterica subsp. enterica serovar Typhimurium
Cell membrane [7] = experiment: Induction of membrane damage in Salmonella typhimurium DT104 assessed as membrane creping at 1 times of MIC incubated for 60 mins by atomic force microscopic analysis; assay type: subcellular; conditions: Salmonella enterica subsp. enterica serovar Typhimurium
RAW264.7 [8] = experiment: Inhibition of LPS-stimulated NO production in mouse RAW264.7 cells incubated for 24 hrs by Griess reagent based analysis; assay type: functional, cell-based; conditions: dose 1-128 µg/ml
Enterococcus faecalis = experiment: Antibacterial activity against Enterococcus faecalis ATCC 29212 incubated overnight by standard microtiter dilution method; assay type: functional
Salmonella typhimurium [9] = experiment: Antibacterial activity against Salmonella typhimurium DT104 in the presence of CaCl2 by MH broth based assay; assay type: functional, Salmonella enterica subsp. enterica serovar Typhimurium; conditions: Salmonella enterica
[10] = Hemolytic activity in human Red blood cells assessed as hemolysis at 128 ug/ml incubated for 1 hrs by absorbance based microplate reader analysis relative to control; assay type: toxicity, cell-based, Erythrocyte; conditions: red blood cells (erythrocytes), at 128 µg/mL, read-out: Activity
RAW264.7 [11] = experiment: Inhibition of LPS-stimulated TNF-alpha production in mouse RAW264.7 cells at 1 to 128 ug/ml incubated for 24 hrs by ELISA analysis; assay type: functional, cell-based; conditions: dose 1-128 µg/ml
Salmonella typhimurium [12] = experiment: Antibacterial activity against multi-drug resistant Salmonella typhimurium DT104 assessed as inhibition of bacterial growth measured upto 120 mins by MH agar based serial dilution method; assay type: functional, organism-based; conditions: Salmonella enterica subsp. enterica serovar Typhimurium
Salmonella typhimurium [13] = experiment: Antibacterial activity against Salmonella typhimurium DT104 in the presence 25% inactivated mouse serum by MH broth based assay; assay type: functional, Salmonella enterica subsp. enterica serovar Typhimurium; conditions: Salmonella enterica
RAW264.7 [14] = experiment: Anti-inflammatory activity in mouse RAW264.7 cells assessed as inhibition of LPS-induced IL-4 mRNA expression at 15 ug/ml preincubated with compound for 30 mins followed by LPS stimulation and measured after 4 hrs by RT-PCR analysis; assay type: functional, cell-based; conditions: dose 15.0 µg/ml, time 4.5 hrs
Erythrocyte = experiment: Hemolytic activity in human Red blood cells assessed as hemolysis incubated for 1 hrs by absorbance based microplate reader analysis; assay type: toxicity, cell-based
[15] = Antibacterial activity against Salmonella enterica subsp. enterica serovar Choleraesuis ATCC 13312 incubated overnight by standard microtiter dilution method; assay type: functional
[16] = Antibacterial activity against Salmonella paratyphi C CICC 21512 incubated overnight by standard microtiter dilution method; assay type: functional, Salmonella enterica subsp. enterica serovar Paratyphi C; conditions: Salmonella enterica
Salmonella typhimurium [17] = experiment: Antibacterial activity against Salmonella typhimurium DT104 in the presence of MgCl2 by MH broth based assay; assay type: functional, Salmonella enterica subsp. enterica serovar Typhimurium; conditions: Salmonella enterica
Salmonella typhimurium [18] = experiment: Antibacterial activity against Salmonella typhimurium DT104 in the presence of NH4Cl by MH broth based assay; assay type: functional, Salmonella enterica subsp. enterica serovar Typhimurium; conditions: Salmonella enterica
Salmonella typhimurium [19] = experiment: Antibacterial activity against Salmonella typhimurium DT104 in the presence of KCl by MH broth based assay; assay type: functional, Salmonella enterica subsp. enterica serovar Typhimurium; conditions: Salmonella enterica
Salmonella typhimurium [20] = experiment: Antibacterial activity against Salmonella typhimurium DT104 infected in ICR mouse model assessed as reduction in bacterial translocation to liver at 2 mg/kg, ip administered for 3 days and measured on day 7 by serial dilution method; assay type: functional, organism-based; conditions: Salmonella enterica subsp. enterica serovar Typhimurium, time 7.0 day
RAW264.7 [21] = experiment: Anti-inflammatory activity in mouse RAW264.7 cells assessed as inhibition of LPS-induced TNF-alpha mRNA expression at 15 ug/ml preincubated with compound for 30 mins followed by LPS stimulation and measured after 4 hrs by RT-PCR analysis; assay type: functional, cell-based; conditions: dose 15.0 µg/ml, time 4.5 hrs
Cell membrane [22] = experiment: Disruption of membrane integrity in Salmonella typhimurium DT104 assessed as increase in fluorescence intensity at 0.5 to 2 times of MIC incubated for 15 mins by PI staining based flow cytometric analysis; assay type: subcellular; conditions: Salmonella enterica subsp. enterica serovar Typhimurium
Salmonella typhimurium [23] = experiment: Antibacterial activity against Salmonella typhimurium CICC 21913 incubated overnight by standard microtiter dilution method; assay type: functional, Salmonella enterica subsp. enterica serovar Typhimurium; conditions: Salmonella enterica
Staphylococcus aureus [24] = experiment: Antibacterial activity against Staphylococcus aureus ATCC 29213 incubated overnight by standard microtiter dilution method; assay type: functional
Salmonella typhimurium [25] = experiment: Antibacterial activity against Salmonella typhimurium DT104 assessed as increase in occludin mRNA level in colon at 20 mg/kg, ip administered for 3 days and measured on day 7 by RT-PCR analysis; assay type: functional, organism-based; conditions: Salmonella enterica subsp. enterica serovar Typhimurium, time 7.0 day
[26] = Cytotoxicity against mouse RAW264.7 cells infected with Salmonella typhimurium DT104 assessed as cell viability at 1 times of MIC measured at 180 min by MTT assay; assay type: toxicity, cell-based; conditions: RAW264.7 cells infected with Salmonella typhimurium DT104, read-out: Activity
Salmonella typhimurium [27] = experiment: Antibacterial activity against Salmonella typhimurium DT104 infected in mouse RAW264.7 cells assessed as bacterial killing at 1 times of MIC measured after 90 mins by MH agar based serial dilution method relative to control; assay type: functional, Salmonella enterica subsp. enterica serovar Typhimurium; conditions: 1.5 h
Salmonella typhimurium [28] = experiment: Antibacterial activity against Salmonella typhimurium DT104 assessed as increase in claudin mRNA level in colon at 20 mg/kg, ip administered for 3 days and measured on day 7 by RT-PCR analysis; assay type: functional, organism-based; conditions: Salmonella enterica subsp. enterica serovar Typhimurium, time 7.0 day
Salmonella typhimurium [29] = experiment: Antibacterial activity against multi-drug resistant Salmonella typhimurium DT104 assessed as inhibition of bacterial growth at 0.5 to 2 times of MIC by MH agar based serial dilution method; assay type: functional, organism-based; conditions: Salmonella enterica subsp. enterica serovar Typhimurium, time <= 120.0 min, TDE = time-dependent effect
Salmonella typhimurium [30] = experiment: Antibacterial activity against Salmonella typhimurium DT104 assessed as increase in ZO-2 mRNA level in colon at 20 mg/kg, ip administered for 3 days and measured on day 7 by RT-PCR analysis; assay type: functional, organism-based; conditions: Salmonella enterica subsp. enterica serovar Typhimurium, time 7.0 day
Salmonella typhimurium [31] = experiment: Antibacterial activity against Salmonella typhimurium DT104 assessed as reduction in IL-15 mRNA level in ileum at 20 mg/kg, ip administered for 3 days and measured on day 7 by RT-PCR analysis; assay type: functional, organism-based; conditions: Salmonella enterica subsp. enterica serovar Typhimurium, time 7.0 day
Lipid bilayer = experiment: Induction of outer membrane permeabilization in Salmonella typhimurium DT104 at 0.625 to 15 microg/ml by NPN uptake based fluorescence spectrophotometric analysis; conditions: Salmonella enterica subsp. enterica serovar Typhimurium, dose 0.625-15 µg/ml
Cell membrane [32] = experiment: Disruption of membrane integrity in Salmonella typhimurium DT104 assessed as increase in red fluorescence at 1 times of MIC incubated for 60 mins by PI and SYTO9 staining based confocal laser scanning microscopic analysis; assay type: subcellular; conditions: Salmonella enterica subsp. enterica serovar Typhimurium
Escherichia coli = experiment: Antibacterial activity against Escherichia coli O157:H7 CICC 21530 incubated overnight by standard microtiter dilution method; assay type: functional

With `C[C@@H](O)[C@H](NC(=O)[C@H](CS)NC(=O)[C@H](CCCCN)NC(=O)[C@H](Cc1c[nH]c2ccccc12)NC(=O)[C@H](CCCCN)NC(=O)[C@@H](N)Cc1c[nH]c2ccccc12)C(=O)N[C@@H](CCCCN)C(=O)N[C@@H](CO)C(=O)NCC(=O)N[C@@H](CS)C(=O)N[C@@H](CCCCN)C(=O)N[C@@H](Cc1c[nH]c2ccccc12)C(=O)N[C@@H](CCCCN)C(=O)N[C@@H](Cc1c[nH]c2ccccc12)C(N)=O` (H-WKWKCTKSGCKWKW-NH2) the MIC [1] was 1 µg/mL (≈ 0.539 µM), the Activity (Salmonella typhimurium [2]) was “Active” and the inhibition (RAW264.7 [3]) was “Active”. For the same molecule, the MIC (Staphylococcus aureus [4]) was 8 µg/mL (≈ 4.31 µM), the Activity (Salmonella typhimurium [5]) was “Active” and the Activity (Cell membrane [6]) was “Active”. For the same molecule, the Activity (Cell membrane [7]) was “Active”, the inhibition (RAW264.7 [8]) was “Dose-Dependent Effect” and the MIC (Enterococcus faecalis) was 2 µg/mL (≈ 1.08 µM). The MIC (Salmonella typhimurium [9]) was 8 µg/mL, the hemolysis at 1 h, 128 ug/ml [10] was less than 10% and the inhibition (RAW264.7 [11]) was “Active”. For the same molecule, the Activity (Salmonella typhimurium [12]) was “Dose-Dependent Effect”, the MIC (Salmonella typhimurium [13]) was 16 µg/mL (≈ 8.63 µM) and the inhibition (RAW264.7 [14]) was “Active”. For the same molecule, the MHC (Erythrocyte) was greater than 128 µg/mL, the MIC [15] was 1 µg/mL (≈ 0.539 µM) and the MIC [16] was 4 µg/mL (≈ 2.16 µM). It also gave an MIC (Salmonella typhimurium [17]) of 4 µg/mL, an MIC (Salmonella typhimurium [18]) of 4 µg/mL and an MIC (Salmonella typhimurium [19]) of 8 µg/mL. For the same molecule, the Activity (Salmonella typhimurium [20]) was “Active”, the inhibition (RAW264.7 [21]) was “Active” and the Activity (Cell membrane [22]) was “Active”. For the same molecule, the MIC (Salmonella typhimurium [23]) was 8 µg/mL (≈ 4.31 µM), the MIC (Staphylococcus aureus [24]) was 4 µg/mL (≈ 2.16 µM) and the Activity (Salmonella typhimurium [25]) was “Active”. For the same molecule, the viability at 3 h, 1 times of MIC [26] was greater than 90%, the Activity (Salmonella typhimurium [27]) was greater than 99.9% and the Activity (Salmonella typhimurium [28]) was “Active”. For the same molecule, the Activity (Salmonella typhimurium [29]) was “Tde”, the Activity (Salmonella typhimurium [30]) was “Active” and the Activity (Salmonella typhimurium [31]) was “Active”. For the same molecule, the Activity (Lipid bilayer) was “Active”, the Activity (Cell membrane [32]) was “Active” and the MIC (Escherichia coli) was 4 µg/mL (≈ 2.16 µM).
